US20080311039A1, “Therapeutic and Prognostic Factor Yy1 in Human Cancer” (The Regents of the University of California, priority 2004, published 2008)
Counter-ions that a name gives are not always drawn.

What was measured:
YY1 [1] = test: YY1 expression in PC-3 cells
YY1 [2] = test: YY1 activity by luciferase reporter assay in PC-3
DR5 promoter = test: DR5 luciferase reporter system (pDR5 wild type) in PC3 cells; assay type: cell-based, human; settings: PC3 transfected with pDR5, drug treatment vs basal
Text: Another reporter gene system of use in the present invention utilized firefly luciferase luminescence as the reporter signal. In this reporter system, a wild-type DR5 promoter is operably linked to a luciferase reporter sequence. The wild-type DR5YY1 responsive site can be used in parallel with a DR5 promoter having a non-functional YY1 responsive site, for example, a 5′-deletion mutant-605 that includes the YY1 binding site (pDR5/-605) (described in Yoshida, et al, (2001) FEBS Letters, 507:381-385), or a DR5 promoter sequence missing the YY1 binding sequence (pDR5-YY1 mutant) (see, Huerta-Yepez, et al., AACR Abstract, 2005).
However, many drug-resistant tumor cells are also resistant to TRAIL and such tumors require sensitization to reverse TRAIL resistance. […] This hypothesis was tested by examining a luciferase reporter system (pDR5 wild type) and plasmids in which the YY1-binding site was either deleted (pDR5/-605) and/or mutated (pDR5-YY1 mutant).

NF-κB [3] = test: NF-κB DNA-binding activity in PC-3 cells; assay type: cell-based, human
Fas = Fas expression in B-NHL cell lines (flow cytometry, RT-PCR, Western); assay type: cell-based
Text: (§1) We have recently reported that treatment of B-Non-Hodgkin's Lymphoma (NHL) cell lines with rituximab (anti-CD20 antibody) sensitizes the tumor cells to both chemotherapy and Fas-induced apoptosis (Jazirehi and Bonavida, 2005, Oncogene, 24:2121-2145). This study investigated the underlying molecular mechanism of rituximab-mediated reversal of resistance. Treatment of B-NHL cell lines inhibited the constitutively activated NF-κB. Cells expressing dominant active IκB or treated with NF-κB specific inhibitors were sensitized to both drugs and FasL agonist mAb (CH-11)-induced apoptosis. Downregulation of Bcl-xL expression via inhibition of NF-κB activity correlated with chemosensitivity. […] The role of Bcl-xL expression in the regulation of Fas resistance was not apparent as Ramos HA-Bcl cells were as sensitive as the wild type cells to CH-11-induced apoptosis. […] These findings show two complementary mechanisms underlying the chemo-sensitization and immuno-sensitization of B NHL cells by rituximab via inhibition of NF-κB. The regulation of chemoresistance by NF-B is mediated via Bcl-xL expression whereas the regulation of Fas resistance by NF-B is mediated via YY1 expression and activity.
(§2) We have reported that rituximab triggers and inhibits anti-apoptotic gene products in NHL B-cell lines resulting in sensitization to drug-induced apoptosis (Alas et al., Clin. Cancer Res. 8:836, 2001; Jazirehi et al., Mol. Cancer. Therapy 2:1183, 2003; Vega et al., Oncogene 23:3530, 2004). This study investigated whether rituximab also modifies intracellular signaling pathways resulting in the sensitization of NHL cells to Fas-induced apoptosis. […] Downregulation of YY1 expression was the result of rituximab-induced inhibition of both the p38MAPK signaling pathway and constitutive NF-κB activity. The dual roles of NF-κB and YY1 in the regulation of Fas expression were corroborated by the use of a dominant-active inhibitor of NF-κB (Ramos IκB-ER mutant) and YY1 siRNA, respectively. […]

PC-3 cells [4] = settings: TRAIL-resistant human prostate carcinoma (CaP) cell lines; Huerta-Yepez et al. 2004; cited from earlier work
YY1 [5] = molecular target: T1, YY1 (Homo sapiens, UniProt P25490); test: YY1 DNA-binding activity in PC-3 cells; assay type: cell-based; set-up: endogenous in cells; host or cells: PC-3
T1 sequence (P25490 whole entry): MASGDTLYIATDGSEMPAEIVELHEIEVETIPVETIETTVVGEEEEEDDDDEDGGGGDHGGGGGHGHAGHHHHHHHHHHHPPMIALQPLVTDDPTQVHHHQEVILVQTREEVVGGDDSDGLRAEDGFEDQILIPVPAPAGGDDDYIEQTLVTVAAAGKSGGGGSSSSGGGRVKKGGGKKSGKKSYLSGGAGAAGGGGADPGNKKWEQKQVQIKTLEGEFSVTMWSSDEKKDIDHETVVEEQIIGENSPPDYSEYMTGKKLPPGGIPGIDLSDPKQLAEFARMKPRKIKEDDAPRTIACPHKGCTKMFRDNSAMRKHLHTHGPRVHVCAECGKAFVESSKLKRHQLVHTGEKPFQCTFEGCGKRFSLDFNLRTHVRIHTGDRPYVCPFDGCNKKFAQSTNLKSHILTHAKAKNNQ

DR5 = DR5 expression in PC-3 cells by flow, RT-PCR and western; assay type: cell-based, human
YY1 [6] = molecular target: T1, YY1; test: YY1 activity in B-NHL cell lines; assay type: cell-based; set-up: endogenous in cells; host or cells: 2F7, Ramos, Raji; rituximab-resistant Ramos RR1
Text: as §1, §2

B-NHL cell lines [7] = test: Sensitization to CH-11 (FasL agonist mAb)-induced apoptosis in B-NHL cell lines; assay type: cell-based
Text: as §1, §2

PC-3 cells [8] = test: Sensitization to TRAIL-induced apoptosis, prostate carcinoma cells; assay type: cell-based, human; settings: 500 μM, 1000 μM, 18 h
Method: (§3) Yin-Yang 1 (YY1) is a transcription factor that may activate or repress gene expression. […] In this study, we examined the direct S-nitrosylation of YY1 using the human prostate cancer cell line, PC-3, as model. Culture cells were incubated for 18 h in the presence of various concentrations of the NO donor DETANONOate (500 μM, 1000 μM) that sensitized PC-3 to Fas ligand- and TRAIL-mediated apoptosis. Subsequently, we analyzed for S-nitrosylation of YY1 by various methods. […] Noteworthy, significant constitutive S-nitrosylated proteins were detected. Further, using double immunofluorescence staining microscopy, we co-localized the presence of S-nitrosylated proteins and YY1.

PC-3 cells [9] = test: Sensitization to Fas ligand-mediated apoptosis, PC-3; assay type: cell-based, human; settings: 500 μM, 1000 μM, 18 h
Method: as §3

PC-3 cells [10] = test: General S-nitrosylation of proteins in PC-3 by immunohistochemistry; assay type: cell-based, human; settings: PC-3, after treatment with NO
Method: as §3

YY1 [11] = test: YY1 expression in rituximab-resistant Ramos RR1 cells; assay type: cell-based; settings: alone or in combination with NF-κB inhibitors
Method: Ramos and Ramos RR1 cells were treated with vincristine, VP-16, CDDP, and ADR, and the NF-κB inhibitors Bortezomib and DHMEQ.

YY1 [12] = test: YY1 expression in NHL B-cell lines; assay type: cell-based; settings: NHL B cell lines (Example 9)
Text: (§4) We have reported that rituximab triggers and inhibits anti-apoptotic gene products in NHL B-cell lines resulting in sensitization to drug-induced apoptosis (Alas et al., Clin. Cancer Res. 8:836, 2001; Jazirehi et al., Mol. Cancer. Therapy 2:1183, 2003; Vega et al., Oncogene 23:3530, 2004). This study investigated whether rituximab also modifies intracellular signaling pathways resulting in the sensitization of NHL cells to Fas-induced apoptosis. […] Downregulation of YY1 expression was the result of rituximab-induced inhibition of both the p38MAPK signaling pathway and constitutive NF-κB activity. The dual roles of NF-κB and YY1 in the regulation of Fas expression were corroborated by the use of a dominant-active inhibitor of NF-κB (Ramos IκB-ER mutant) and YY1 siRNA, respectively. The role of rituximab-mediated inhibition of the p38MAPK/NF-κB/YY1 pathways, which result in both Fas upregulation and sensitization to CH11-induced apoptosis, was corroborated by the use of specific chemical inhibitors directed at various targets of these pathways. […] Altogether, these findings provide a novel mechanism of rituximab-mediated signaling by inhibiting the p38MAPK/NF-κB/YY1 pathways and resulting in the sensitization of B NHL to Fas-induced apoptosis. […]

Ramos cells [13] = test: Chemosensitization to drug-induced apoptosis in Ramos B-NHL cells and variants; assay type: cell-based
Text: as §1

B-NHL cell lines [14] = settings: Jazirehi and Bonavida 2005; cited from earlier work
Ramos cells [15] = settings: B-NHL cell lines; Jazirehi and Bonavida 2005; cited from earlier work
[16] = system: p38MAPK signaling pathway; test: p38MAPK signaling pathway in NHL cell lines; assay type: cell-based; settings: NHL B cell lines
Text: as §4

NF-κB [17] = test: Constitutive NF-κB activity in NHL cell lines; assay type: cell-based; settings: NHL B cell lines
Text: as §4

COc1cc2c(cc1O)CC[C@@H]1[C@@H]2CC[C@]2(C)[C@@H](O)CC[C@@H]12 [2-methoxyestradiol, 2-Methoxyestradiol]
YY1 expression (YY1 [1]): marked reduction | YY1 activity (luciferase reporter assay) (YY1 [2]): marked reduction

COc1cccc2c1C(=O)c1c(O)c3c(c(O)c1C2=O)C[C@@](O)(C(=O)CO)C[C@@H]3O[C@H]1C[C@H](N)[C@H](O)[C@H](C)O1 [ADR, doxorubicin hydrochloride]
luciferase activity (DR5 promoter): significantly augmented luciferase activity

[NH2][Pt]([NH2])([Cl])[Cl] [CDDP, cisplatin]
luciferase activity (DR5 promoter): significantly augmented luciferase activity

NCCN(CCN)/[N+]([O-])=N/O [DETANONOate, 3,3-bis(aminoethyl)-1-hydroxy-2-oxo-*1-triazene]
NF-κB DNA-binding activity (NF-κB [3]): inhibited | Fas expression (Fas; B-NHL cell lines (Example 6)): upregulation of Fas expression | sensitization of TRAIL-resistant CaP cell lines (PC-3 cells [4]): can be sensitized | YY1 DNA-binding activity (YY1 [5]): inhibited | DR5 expression (DR5): significant upregulation of DR5 expression | YY1 activity (YY1 [6]; B-NHL cell lines (Example 6)): Inhibition of YY1 activity | YY1 expression (YY1 [1]): inhibited YY1 expression | sensitization to CH-11-induced apoptosis (B-NHL cell lines [7]; B-NHL cell lines (Example 6)): sensitization to CH-11-induced apoptosis | sensitization to TRAIL-mediated apoptosis (PC-3 cells [8]): sensitized | sensitization to Fas ligand-mediated apoptosis (PC-3 cells [9]): sensitized

[N]=O [NO, nitric oxide]
general S-nitrosylation of proteins (PC-3 cells [10]): increased

CC[C@]1(O)C[C@H]2CN(CCc3c([nH]c4ccccc34)[C@@](C(=O)OC)(c3cc4c(cc3OC)N(C=O)[C@H]3[C@@](O)(C(=O)OC)[C@H](OC(C)=O)[C@]5(CC)C=CCN6CC[C@]43[C@@H]65)C2)C1 [vincristine]
YY1 expression (YY1 [11]): significantly abrogated or diminished YY1 expression

rituximab: anti-CD20 antibody
YY1 expression (YY1 [12]): inhibited | sensitization to drug-induced apoptosis (Ramos cells [13]; Bcl-xL overexpressing Ramos HA-BclxL cells): not sensitized | chemosensitization (Ramos cells [13]; rituximab-resistant Ramos RR1 cells): cannot be chemosensitized | Fas expression (Fas; B-NHL cell lines (Example 6)): upregulation of Fas expression | Fas expression (Fas; NHL cell lines, as early as 6 h post treatment, flow cytometry, RT-PCR, Western): up-regulated | YY1 activity (YY1 [6]; B-NHL cell lines (Example 6)): Inhibition of YY1 activity | YY1 activity (YY1 [6]; NHL B cell lines (Example 9)): inhibited | sensitization to Fas-induced apoptosis (B-NHL cell lines [14]): sensitizes | sensitization to CH-11-induced apoptosis (B-NHL cell lines [7]; 2F7, Ramos and Raji, 20 μg/ml): sensitized the cells to CH-11 (FasL agonist mAb)-induced apoptosis and synergy was achieved | sensitization to CH-11-induced apoptosis (B-NHL cell lines [7]; B-NHL cell lines (Example 6)): sensitization to CH-11-induced apoptosis | sensitization to chemotherapy (Ramos cells [15]): sensitizes | p38MAPK signaling pathway [16]: inhibition | constitutive NF-κB activity (NF-κB [17]): inhibition
